In patent US20180214428A1, “3-(1H-INDOL-2-YL)-1H-PYRAZOLO[3,4-B]PYRIDINES AND THERAPEUTIC USES THEREOF” (Samumed, LLC, priority 2015, published 2018):

Legend:
[1] = system: primary human mesenchymal stem cells (hMSCs); assay: Induction of chondrogenesis in primary human mesenchymal stem cells; type: cell-based; conditions: Homo sapiens, Mesenchymal stem cells, 144 h, 6 days; for Emax: chondrogenic nodules, TGF-β3 (10 ng/mL) positive control, read-out: Max. Activity as % TGF-β3 activity; for EC50: concentration required to induce 50% levels of chondrogenesis vs TGF-β3, read-out: Conc (nM) of 50% TGF-β3 activity
Description: Representative compounds were screened using primary human mesenchymal stem cells (hMSCs) to determine their ability to induce chondrogenesis (process by which cartilage is developed).
Primary human mesenchymal stem cells (hMSCs) were purchased from Lonza (Walkersville, Md.) and expanded in Mesenchymal Stem Cell Growth Media (Lonza). Cells between passage 3 and 6 were used for the experiments.
Each compound was dissolved in DMSO as a 10 mM stock and used to prepare compound source plates. Serial dilution (1:3, 6-point dose-response curves from 2700 nM to 10 nM) and compound transfer was performed using the ECHO 550 (Labcyte, Sunnyvale, Calif.) into 96-well clear bottom assay plates (Greiner Bio-One) with appropriate DMSO backfill for a final DMSO concentration of 0.03%. hMSCs were plated at 20,000 cells/well in 250 μL/well Incomplete Chondrogenic Induction Medium (Lonza; DMEM, dexamethasone, ascorbate, insulin-transferrin-selenium [ITS supplement], gentamycin-amphotericin [GA-1000], sodium pyruvate, proline and L-glutamine). TGF-β3 (10 ng/mL) was used as a positive control for differentiation while negative control wells were treated with 75 nL DMSO for normalization and calculating EC50 values. Cells were incubated at 37° C. and 5% CO2 for 6 days. To image chondrogenic nodules, the cells were fixed using 4% formaldehyde (Electron Microscopy Sciences), and stained with 2 μg/mL Rhodamine B (Sigma-Aldrich) and 20 μM Nile Red (Sigma-Aldrich) [Johnson K., et. al, A Stem Cell-Based Approach to Cartilage Repair, Science, (2012). 336(6082), 717-721]. The nodules imaged (4 images per well at 4× magnification) by excitation at 531 nm and emission at 625 nm and quantified using the CellInsight CX5 (Thermo Scientific). Number of nodules in each well was normalized to the average of 3 DMSO treated wells on the same plate using Excel (Microsoft Inc.). The normalized averages (fold change over DMSO) of 3 replicate wells for each compound concentration were calculated. Due to solubility limitations of some of the compounds, curve fitting was incomplete leading to inaccurate EC50 determinations.
Using TGF-β3 as a positive control, the concentration of representative compounds required to induce 50% levels of chondrogenesis is reported. In addition, the maximum activity of each compound and the respective dose that each compound reached maximum chondrogenesis activity is reported.

IL-6 = IL-6 inhibition in LPS-stimulated THP-1 monocytes (HTRF); type: cell-based, human; conditions: Homo sapiens, THP-1 cells; for EC50: 500 ng/mL LPS, 22 h, HTRF IL-6 readout, 10-point dose-response from 10 μM; for inhibition at 10 µM: LPS stimulated, given only where EC50 >10 μM, top concentration 10 μM, read-out: percentage in parentheses beside EC50 >10 (IL-6 inhibition)
Summary of the method: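 THP-1 cells serum-reduced (1% FBS, 24 h), then 5000 cells/well preincubated 2 h with compound (10-point 1:3 series from 10 μM, 0.1% DMSO) before 500 ng/mL LPS for 22 h at 37 °C. Secreted IL-6 quantified by HTRF 665/620 ratio; DMSO-normalised duplicates fitted to four-parameter EC50; above 10 μM, % inhibition at 10 μM given.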

EC50 (IL-6) [µM]	EC50 [1] [nM]	SMILES	Emax [1] [%]	inhibition at 10 µM (IL-6) [%]
2.08	–	CCCC(=O)Nc1cncc(-c2cnc3[nH]nc(-c4cc5ccccc5[nH]4)c3c2)c1 [Compound 243, N-(5-(3-(1H-Indol-2-yl)-1H-pyrazolo[3,4-b]pyridin-5-yl)pyridin-3-yl) butyramide]	28	–
0.257	–	CCNCc1cncc(-c2cnc3[nH]nc(-c4cc5c(-c6cc(F)cc(NCCN(C)C)c6)cccc5[nH]4)c3c2)c1 [Compound 428, N^1-(3-(2-(5-(5-((Ethylamino)methyl)pyridin-3-yl)-1H-pyrazolo[3,4-b]pyridin-3-yl)-1H-indol-4-yl)-5-fluorophenyl)-N^2,N^2-dimethylethane-1,2-diamine]	74	–
5.25	–	CN(C)c1cncc(-c2cnc3[nH]nc(-c4cc5c(N6CCCCC6)cccc5[nH]4)c3c2)c1 [Compound 151, N,N-Dimethyl-5-(3-(4-(piperidin-1-yl)-1H-indol-2-yl)-1H-pyrazolo[3,4-b]pyridin-5-yl)pyridin-3-amine]	22	–
1.98	–	CN(C)CCOc1cncc(-c2cnc3[nH]nc(-c4cc5c(-c6cccnc6)cccc5[nH]4)c3c2)c1 [Compound 565, N,N-Dimethyl-2-((5-(3-(4-(pyridin-3-yl)-1H-indol-2-yl)-1H-pyrazolo[3,4-b]pyridin-5-yl)pyridin-3-yl)oxy)ethan-1-amine]	46	–
0.355	900	c1cncc(-c2cccc3[nH]c(-c4n[nH]c5ncc(-c6cncc(CN7CCCCC7)c6)cc45)cc23)c1 [Compound 84, 5-(5-(Piperidin-1-ylmethyl)pyridin-3-yl)-3-(4-(pyridin-3-yl)-1H-indol-2-yl)-1H-pyrazolo[3,4-b]pyridine]	82	–
1.89	–	CCCCC(=O)Nc1cncc(-c2cnc3[nH]nc(-c4cc5c(-c6ccccn6)cccc5[nH]4)c3c2)c1 [Compound 136, N-(5-(3-(4-(Pyridin-2-yl)-1H-indol-2-yl)-1H-pyrazolo[3,4-b]pyridin-5-yl)pyridin-3-yl)pentanamide]	41	–
0.157	900	CS(=O)(=O)NCc1cc(F)cc(-c2cccc3[nH]c(-c4n[nH]c5ncc(-c6cncc(N)c6)cc45)cc23)c1 [Compound 453, N-(3-(2-(5-(5-Aminopyridin-3-yl)-1H-pyrazolo[3,4-b]pyridin-3-yl)-1H-indol-4-yl)-5-fluorobenzyl)methanesulfonamide]	189	–
> 10	10	Fc1ccc(-c2cccc3[nH]c(-c4n[nH]c5ncc(-c6cncnc6)cc45)cc23)cc1 [Compound 47, 3-(4-(4-Fluorophenyl)-1H-indol-2-yl)-5-(pyrimidin-5-yl)-1H-pyrazolo[3,4-b]pyridine]	135	35.6
0.007	–	CN(C)CCNc1cc(F)cc(-c2cccc3[nH]c(-c4n[nH]c5ncc(-c6cncnc6)cc45)cc23)c1 [Compound 449, N^1-(3-Fluoro-5-(2-(5-(pyrimidin-5-yl)-1H-pyrazolo[3,4-b]pyridin-3-yl)-1H-indol-4-yl)phenyl)-N^2,N^2-dimethylethane-1,2-diamine]	17	–
0.009	300	O=C(Nc1cncc(-c2cnc3[nH]nc(-c4cc5c(-c6ccccn6)cccc5[nH]4)c3c2)c1)c1ccccc1 [Compound 128, N-(5-(3-(4-(Pyridin-2-yl)-1H-indol-2-yl)-1H-pyrazolo[3,4-b]pyridin-5-yl)pyridin-3-yl)benzamide]	565	–
1.12	–	c1ccc(-c2cccc3[nH]c(-c4n[nH]c5ncc(-c6cncc(CN7CCCC7)c6)cc45)cc23)nc1 [Compound 131, 3-(4-(Pyridin-2-yl)-1H-indol-2-yl)-5-(5-(pyrrolidin-1-ylmethyl)pyridin-3-yl)-1H-pyrazolo[3,4-b]pyridine]	161	–
1.8	30	CN(C)CCNc1cc(F)cc(-c2cccc3[nH]c(-c4n[nH]c5ncc(-c6cncc(OC7CCCCC7)c6)cc45)cc23)c1 [Compound 785, N^1-(3-(2-(5-(5-(Cyclohexyloxy)pyridin-3-yl)-1H-pyrazolo[3,4-b]pyridin-3-yl)-1H-indol-4-yl)-5-fluorophenyl)-N^2,N^2-dimethylethane-1,2-diamine]	147	–
> 10	900	CN(C)CCNc1cc(F)cc(-c2cccc3[nH]c(-c4n[nH]c5ncc(-c6cncc(CN7CCCCC7)c6)cc45)cc23)c1 [Compound 437, N^1-(3-Fluoro-5-(2-(5-(5-(piperidin-1-ylmethyl)pyridin-3-yl)-1H-pyrazolo[3,4-b]pyridin-3-yl)-1H-indol-4-yl)phenyl)-N^2,N^2-dimethylethane-1,2-diamine]	175	43.2
0.194	–	CCNCc1cncc(-c2cnc3[nH]nc(-c4cc5c(-c6ccccn6)cccc5[nH]4)c3c2)c1 [Compound 124, N-((5-(3-(4-(Pyridin-2-yl)-1H-indol-2-yl)-1H-pyrazolo[3,4-b]pyridin-5-yl)pyridin-3-yl)methyl)ethanamine]	32	–
0.22	300	CN1CCN(c2cccc3[nH]c(-c4n[nH]c5ncc(-c6cncc(CN7CCCCC7)c6)cc45)cc23)CC1 [Compound 215, 3-(4-(4-Methylpiperazin-1-yl)-1H-indol-2-yl)-5-(5-(piperidin-1-ylmethyl)pyridin-3-yl)-1H-pyrazolo[3,4-b]pyridine]	51	–
0.899	–	CN(C)c1cncc(-c2cnc3[nH]nc(-c4cc5c(-c6cccc(F)c6)cccc5[nH]4)c3c2)c1 [Compound 5, 5-(3-(4-(3-Fluorophenyl)-1H-indol-2-yl)-1H-pyrazolo[3,4-b]pyridin-5-yl)-N,N-dimethylpyridin-3-amine]	49	–
1.46	30	CCNCc1cncc(-c2cnc3[nH]nc(-c4cc5c(N6CCCCC6)cccc5[nH]4)c3c2)c1 [Compound 150, N-((5-(3-(4-(Piperidin-1-yl)-1H-indol-2-yl)-1H-pyrazolo[3,4-b]pyridin-5-yl)pyridin-3-yl)methyl)ethanamine]	91	–
> 10	–	O=C(Nc1cncc(-c2cnc3[nH]nc(-c4cc5ccccc5[nH]4)c3c2)c1)C1CCCCC1 [Compound 249, N-(5-(3-(1H-Indol-2-yl)-1H-pyrazolo[3,4-b]pyridin-5-yl)pyridin-3-yl) cyclohexanecarboxamide]	–	14.2
> 10	–	Fc1cccc(-c2cccc3[nH]c(-c4n[nH]c5ncc(-c6cncc(OCc7ccccc7)c6)cc45)cc23)c1 [Compound 520, 5-(5-(Benzyloxy)pyridin-3-yl)-3-(4-(3-fluorophenyl)-1H-indol-2-yl)-1H-pyrazolo[3,4-b]pyridine]	–	31.3
0.062	–	Cc1ccncc1-c1cnc2[nH]nc(-c3cc4c(-c5ccncc5)cccc4[nH]3)c2c1 [Compound 99, 5-(4-Methylpyridin-3-yl)-3-(4-(pyridin-4-yl)-1H-indol-2-yl)-1H-pyrazolo[3,4-b]pyridine]	–	–
3.6	–	Fc1ccccc1-c1cccc2[nH]c(-c3n[nH]c4ncc(C5CCNCC5)cc34)cc12 [Compound 539, 3-(4-(2-Fluorophenyl)-1H-indol-2-yl)-5-(piperidin-4-yl)-1H-pyrazolo[3,4-b]pyridine]	–	–
0.594	–	O=C(Nc1cncc(-c2cnc3[nH]nc(-c4cc5c(-c6ccncc6)cccc5[nH]4)c3c2)c1)C1CCCCC1 [Compound 115, N-(5-(3-(4-(Pyridin-4-yl)-1H-indol-2-yl)-1H-pyrazolo[3,4-b]pyridin-5-yl)pyridin-3-yl)cyclohexanecarboxamide]	–	–
0.116	–	FC1(F)CCN(Cc2cncc(-c3cnc4[nH]nc(-c5cc6ncccc6[nH]5)c4c3)c2)C1 [Compound 504, 5-(5-((3,3-Difluoropyrrolidin-1-yl)methyl)pyridin-3-yl)-3-(1H-pyrrolo[3,2-b]pyridin-2-yl)-1H-pyrazolo[3,4-b]pyridine]	–	–
